The subject of one series is A549. Kind of series: Cytotoxicity against human A549 cells after 48 hrs by Alamar Blue assay. Format: functional, cell-based. The following applies: A549, 48 h. (Resazurin is reduced to fluorescent resorufin, in cell work by metabolically active cells.)
In the next series the test system is L6. Kind of series: Cytotoxicity against rat L6 cells after 71.5 hrs by Presto Blue assay. The settings on record: L6, 71.5 h. The class given is cell-based.
The nature of series [1]: Selectivity ratio of IC50 for rat L6 cells to IC50 for human A549 cells. Format: ADME, cell-based. The following applies: L6 cells and A549 cells, read-out: Ratio IC50.
Series [2] concerns the target DNA topoisomerase 2-alpha (Homo sapiens) (UniProt P11388). Kind of series: Inhibition of human topoisomerase-2 alpha assessed as Escherichia coli pBR322 DNA cleavage at 100 uM after 30 mins by agarose electrophoresis.

What is called IC50 is the concentration that gives 50% inhibition.

Molecules are shown by their SMILES. The source made the active and inactive calls. The rule behind the calls is not given here.

Chain of DNA topoisomerase 2-alpha (Homo sapiens) (P11388 whole entry): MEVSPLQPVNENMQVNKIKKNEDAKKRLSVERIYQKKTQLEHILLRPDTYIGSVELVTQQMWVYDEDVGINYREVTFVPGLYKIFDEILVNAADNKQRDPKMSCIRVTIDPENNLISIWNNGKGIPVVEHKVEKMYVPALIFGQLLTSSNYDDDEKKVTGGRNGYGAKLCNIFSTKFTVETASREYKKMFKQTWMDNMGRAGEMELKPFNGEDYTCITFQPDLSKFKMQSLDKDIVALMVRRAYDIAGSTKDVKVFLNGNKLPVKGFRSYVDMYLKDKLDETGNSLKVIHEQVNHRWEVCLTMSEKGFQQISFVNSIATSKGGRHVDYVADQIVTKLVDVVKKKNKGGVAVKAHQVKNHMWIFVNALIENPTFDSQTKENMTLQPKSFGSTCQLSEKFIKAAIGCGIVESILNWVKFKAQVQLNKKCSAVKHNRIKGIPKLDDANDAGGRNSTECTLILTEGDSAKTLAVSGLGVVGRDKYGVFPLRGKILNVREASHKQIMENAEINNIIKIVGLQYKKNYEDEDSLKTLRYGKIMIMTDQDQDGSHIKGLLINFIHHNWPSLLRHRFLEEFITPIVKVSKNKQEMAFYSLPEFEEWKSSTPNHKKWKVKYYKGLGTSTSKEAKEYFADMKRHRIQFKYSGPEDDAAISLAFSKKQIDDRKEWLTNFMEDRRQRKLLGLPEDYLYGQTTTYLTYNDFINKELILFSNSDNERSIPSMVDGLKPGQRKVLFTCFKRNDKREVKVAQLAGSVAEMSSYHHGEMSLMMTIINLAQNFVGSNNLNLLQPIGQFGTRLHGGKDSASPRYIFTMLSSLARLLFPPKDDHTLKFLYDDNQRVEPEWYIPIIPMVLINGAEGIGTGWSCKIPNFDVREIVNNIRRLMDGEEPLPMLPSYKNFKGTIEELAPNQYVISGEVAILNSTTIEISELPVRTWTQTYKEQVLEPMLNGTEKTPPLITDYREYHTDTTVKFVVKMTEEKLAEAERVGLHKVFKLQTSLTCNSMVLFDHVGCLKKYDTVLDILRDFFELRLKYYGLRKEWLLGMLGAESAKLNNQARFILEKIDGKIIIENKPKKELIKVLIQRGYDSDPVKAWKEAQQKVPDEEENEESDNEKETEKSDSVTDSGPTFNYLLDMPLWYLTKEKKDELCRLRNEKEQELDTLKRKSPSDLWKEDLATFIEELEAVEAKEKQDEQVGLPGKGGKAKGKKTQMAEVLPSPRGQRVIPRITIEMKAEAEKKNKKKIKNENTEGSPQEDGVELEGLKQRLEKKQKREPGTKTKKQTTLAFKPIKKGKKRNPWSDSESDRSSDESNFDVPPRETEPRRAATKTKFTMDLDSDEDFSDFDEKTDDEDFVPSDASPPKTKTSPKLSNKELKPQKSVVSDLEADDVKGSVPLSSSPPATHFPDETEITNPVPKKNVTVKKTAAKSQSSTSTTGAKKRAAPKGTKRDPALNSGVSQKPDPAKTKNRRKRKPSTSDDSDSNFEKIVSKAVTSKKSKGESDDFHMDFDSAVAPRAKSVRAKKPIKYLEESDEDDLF

Take `COc1cc([C@@H]2c3cc4c(cc3[C@@H](OCc3ccc(CO[C@@H]5c6cc7c(cc6[C@@H](c6cc(OC)c(O)c(OC)c6)[C@H]6C(=O)OC[C@@H]65)OCO7)cc3)[C@H]3COC(=O)[C@H]23)OCO4)cc(OC)c1O`: the IC50 with A549 was found to be 360 nM; in the series with L6, 600 nM. Also, the selectivity ratio in series [1] turned out to be 1.7. Further, the inhibition result in series [2] is “Active”.

As to `CCCCCCO[C@@H]1c2cc3c(cc2[C@@H](c2cc(OC)c(O)c(OC)c2)[C@H]2C(=O)OC[C@@H]21)OCO3`, the IC50 is 5970 nM with A549 and 4550 nM with L6. In addition, in series [1], the selectivity ratio came to 0.76. In addition, the inhibition result in series [2] is “Active”.

For `COc1cc([C@@H]2c3cc4c(cc3[C@@H](OCCCCCCO[C@@H]3c5cc6c(cc5[C@@H](c5cc(OC)c(O)c(OC)c5)[C@H]5C(=O)OC[C@@H]53)OCO6)[C@H]3COC(=O)[C@H]23)OCO4)cc(OC)c1O`, the IC50 in the series on A549 was determined as 120 nM; in the series with L6 it was 300 nM. The selectivity ratio in series [1] turned out to be 2.5. In series [2], the inhibition result is “Active”.

For `CCCCO[C@@H]1c2cc3c(cc2[C@@H](c2cc(OC)c(O)c(OC)c2)[C@H]2C(=O)OC[C@@H]21)OCO3`, the IC50 in the series on A549 worked out at 2870 nM; with L6, 4620 nM. Moreover, the selectivity ratio in series [1] was found to be 1.6. Further, in series [2], the inhibition entry is “Active”.

Regarding `COc1cc([C@@H]2c3cc4c(cc3[C@@H](OCCCCO[C@@H]3c5cc6c(cc5[C@@H](c5cc(OC)c(O)c(OC)c5)[C@H]5C(=O)OC[C@@H]53)OCO6)[C@H]3COC(=O)[C@H]23)OCO4)cc(OC)c1O`, the IC50 is 70 nM in the series on A549 and 300 nM with L6. In addition, the selectivity ratio in series [1] amounted to 4.3. Also, in series [2], the inhibition entry is “Active”.

For `COc1cc([C@@H]2c3cc4c(cc3[C@@H](O[C@@H]3O[C@@H]5CO[C@@H](C)O[C@H]5[C@H](O)[C@H]3O)[C@H]3COC(=O)[C@H]23)OCO4)cc(OC)c1O` [ETOPOSIDE], the IC50 with A549 came to 2870 nM; in the series with L6 it was 19000 nM. For the same compound, the selectivity ratio in series [1] was determined as 6.7. In addition, the inhibition entry in series [2] was “Active”.

Take `COc1cc([C@@H]2c3cc4c(cc3[C@@H](OCc3ccccc3)[C@H]3COC(=O)[C@H]23)OCO4)cc(OC)c1O`: the results for the IC50 with A549 and in the series on L6 were 3860 nM and 4550 nM, respectively. Also, the selectivity ratio in series [1] is 1.2. The inhibition result in series [2] was “Active”.

(Values after ChEMBL document CHEMBL3352615, “Synthesis and evaluation of ether-linked demethylepipodophyllotoxin dimers” (Bioorg Med Chem Lett, 2014).)
